The subject of assay [1] is HPV16 E7 protein in CaSki cells. Briefly: HPV16 E7 protein level by western blotting in treated CaSki cells. Type of assay: cell-based. The text has this:
FIG. 1A. The representative immunoblots showing the level of HPV16 E7 constitutively expressed in CaSki cells upon treatment with inhibitors specific for USP7 (P5091, FT671, GNE-6776 and HBX 19818) and that targeting pan-USPs (PR-619) at the indicated concentrations. DMSO served as a vehicle control treatment. Cells were then collected and lysed, the levels of USP7 and HPV16 E7 proteins were detected using the respective specific antibodies. Beta-actin (β-actin) was included as a loading control. KDa: kilodalton. FIG. 1B. The bar chart showing the relative protein level of HPV16 E7 normalized by β-actin (n=3). Data are expressed as mean±standard error of the mean (SEM); Right panel showing the images at 100× magnification of the morphology of the CaSki cells treated with P5091, FT671, GNE-6776, HBX 19818 and PR-619 at concentrations indicated. FIG. 1C. The immunoblots showing the levels of USP7 and HPV16 E7 proteins in CaSki and C-33A (an HPV-null cervical cancer cell line) upon downregulation of USP7 using siRNA targeting specifically against human USP7. FIG. 1D. The immunoblots showing the protein level of HPV16 E7 treated with different concentrations of HBX 19818. CaSki cells were treated with different concentrations of HBX 19818 or DMSO as indicated. Total cell lysates were subjected to western blotting using USP7, β-actin and HPV16 E7 specific antibodies. FIG. 1E. The bar chart showing the relative protein level of HPV16 E7 treated with different concentrations of HBX 19818 normalized by β-actin (n=3). Data are expressed as mean±SEM. FIG. 1F. The curve chart showing the level of E7 protein with increasing concentrations of HBX 19818 treatment. The percentage of HPV16 E7 protein level was analyzed using the non-linear regression function in GraphPad™ Prism 9. Error bars show standard errors of the mean (SEM). *: P<0.05; […]***: P<0.001.
Firstly, we screened four USP7-specific inhibitors (P5091, FT671. GNE-6776, and HBX 19818) and 1 pan-USPs inhibitor (PR-619) to characterize their inhibitory effect on E7 expression in HPV-containing cancer cells. We treated CaSki (HPV16-positive) cancer cells with P5091 at 5 μM and 10 μM; FT671, GNE-6776 and PR-619 at 3 μM and 15 μM; as well as HBX 19818 at 3 μM and 6 μM. These concentrations were chosen based on the reported IC50 values. After 24-hr treatment, the cells were collected, and total cell lysates were resolved by SDS-PAGE. The expression levels of USP7 and E7 were detected using respective specific antibodies.

For assay [2], the system named is CaSki (HPV16-positive) cancer cells. Briefly: Soft agar colony formation assay, CaSki. Type of assay: cell-based, human. As to conditions: 14 days, DMSO 88.17±5.92. How it is done: FIGS. 4A-4D HBX 19818 inhibited transformation of CaSki cells, but not SCC25 cells. The representative images showing the whole-well view and morphology of colonies formed by (FIG. 4A) CaSki (HPV16-positive) and (FIG. 4C) SCC25 (HPV-negative) cancer cells. Cells were seeded into 0.35% agarose gel containing DMEM with 10% FBS, and grew for 14 days. The agarose gel was stained with crystal violet, and images were taken using a digital camera. The colony morphology was observed using an optical microscope at 100× magnification. The bar chart comparing the number of colonies of (FIG. 4B) CaSki or (FIG. 4D) SCC25 cells with DMSO or HBX 19818 at concentrations indicated (n=3). Data indicated are mean±standard error of the mean (SEM). *: P<0.05.
We performed a soft agar colony formation assay to assess the ability of CaSki and SCC25 to grow in an anchorage-independent manner, in the presence or absence of HBX 19818 treatment. CaSki and SCC25 cells were seeded into 0.7% soft agar containing 2×DMEM and 20% FBS. The cells were incubated at 37° C. for 14 days. After a 2-week incubation, the agarose gel was stained with crystal violet. Colonies formed were counted and measured. We observed that CaSki cells treated with DMSO formed a dramatically higher number of colonies (88.17±5.92) than those treated with 6 μM of HBX 19818 (62.67±2.03) (FIGS. 4A and 4B). […]

Assay [3] has as its system SCC25 (HPV-negative) cancer cells. Briefly: Matrigel invasion assay, SCC25. Format: cell-based, human. As to conditions: SCC25, HBX 19818 versus DMSO, 24-hr. How it is done: FIGS. 6A-6D. […] The representative images showing the cell invasion of (FIG. 6A) CaSki (HPV-positive) and (FIG. 6C) SCC25 (HPV-negative) cancer cells in the presence of DMSO (vehicle control) or HBX 19818 at concentrations indicated. Cells were seeded into the invasion chamber with plain medium, followed by treatment with either DMSO or HBX 19818 for 24 hours. Cell invasion was observed and recorded using an optical microscope at 40× magnification. The bar graph comparing the relative cell invasion ability of (FIG. 6B) CaSki and (FIG. 6D) SCC25 with DMSO or HBX 19818 (n=3). Data indicated are mean±standard error of the mean (SEM). **: P<0.01; ***: P<0.001.
We next examined the ability of CaSki and SCC25 cells to invade through Matrigel, which mimics the basement membrane. Approximately 5×10^4 of CaSki and SCC25 cells were seeded into the inserts containing serum-free DMEM medium with either DMSO or HBX 19818. We included MCF7, a non-invasive breast cancer cell line as a negative control. DMEM supplemented with 20% FBS was added into the bottom chamber to attract cells to migrate from the upper to the lower surface of the inserts. After 24-hr incubation at 37° C., the non-invasive cells on the upper surface were removed using cotton swabs. Cells on the lower surface were fixed and stained using hematoxylin. […]

One substance from patent publication US20240009182A1, “REPURPOSED COMPOUND AS THERAPEUTIC FOR HPV-ASSOCIATED CANCERS” (The Chinese University of Hong Kong, priority 2022, published 2024) can be followed below.

Regarding HBX 19818, the “Level of E7 with increasing concentration” value in assay [1] (1.5 μM, 3.0 μM, 6.0 μM and 12.0 μM) is “decreased at a dose-dependent manner”. Moreover, the “E7 protein level after inhibitor treatment” value in assay [1] (3 μM and 6 μM, 24-hr treatment, triplicate experiments) is recorded as “dramatic reduction of E7 protein level”. In assay [1] (non-linear regression, read-out: Concentration sufficient to halve the level of E7 protein), the IC50 was 2800 nM. Further, the Number of colonies in assay [2] (3 μM) is 74.67±7.99; in assay [2] (6 μM) it was 62.67±2.03. Besides, the Invasive ability entry in assay [3] was “similar”.
